This note sets out measurements from patent US7977481B2, “Pyrimidinyl-thiophene kinase modulators” (SGX Pharmaceuticals, Inc., priority 2005, dated 2011).

As usually defined, the IC50 is the concentration at which inhibition is half-maximal. Lower therefore signals greater potency.

Assay [1] has as its target T1, Autophosphorylated AurA kinase (Homo sapiens, UniProt O14965).
T1 construct: made in house; host or cells: Sf9 insect cells
T1 sequence (O14965 1-403): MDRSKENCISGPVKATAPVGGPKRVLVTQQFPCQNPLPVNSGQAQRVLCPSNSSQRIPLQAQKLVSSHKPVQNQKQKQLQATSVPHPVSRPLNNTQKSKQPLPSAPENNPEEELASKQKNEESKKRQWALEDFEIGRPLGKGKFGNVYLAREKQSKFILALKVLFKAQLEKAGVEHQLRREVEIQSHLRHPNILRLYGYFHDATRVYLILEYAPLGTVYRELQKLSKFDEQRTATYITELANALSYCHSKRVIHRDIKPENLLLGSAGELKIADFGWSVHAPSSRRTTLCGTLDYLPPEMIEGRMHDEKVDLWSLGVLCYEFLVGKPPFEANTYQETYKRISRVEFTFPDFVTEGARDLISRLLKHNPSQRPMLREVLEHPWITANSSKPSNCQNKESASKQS
Kind of assay: AurA Luminescence-Based ATP Depletion Enzyme Assay. The format is biochemical. The conditions noted are these: 10 μM ATP. As to the method:
AurA Luminescence-Based ATP Depletion Enzyme Assay
Materials: Kemptide peptide substrate=LRRASLG (Biopeptide, San Diego, Calif.), ATP (Sigma Cat#A-3377, FW=551), HEPES buffer, pH 7.5, 10% Brij 35 (Calbiochem Cat#203728), MgCl2, Staurosporine (Streptomyces sp. Sigma Cat#85660-1MG), white Costar 384-well flat-bottom plate (VWR Cat#29444-088), Autophosphorylated AurA kinase (see below), Kinase-Glo™ (Promega Cat#V6712).
Stock Solutions: 10 mM Kemptide peptide (7.72 mg/ml in water), stored at −20° C.; 100 mM HEPES buffer+0.015% Brij 35, pH 7.5 (5 ml 1M HEPES stock+75 μL 10% Brij 35+45 ml miliQH2O); 10 mM ATP (5.51 mg/ml in dH2O) stored at −20° C. (diluted 50 μl into total of 10 ml miliQH2O daily=50 μM ATP working stock); 100 mM MgCl2; 200 μM Staurosporine, 2× Kinase-Glo™ reagent (made fresh or stored at −20° C.).
AurA Autophosphorylation Reaction: ATP and MgCl2 were added to 1-5 mg/ml AurA at final concentrations of 10 mM and 100 mM, respectively. The autophosphorylation reaction was incubated at 21° C. for 2-3 h. The reaction was stopped by the addition of EDTA to a final concentration of 50 mM, and samples were flash frozen with liquid N2 and stored at −80° C.
Standard Assay Setup for 384-well format (20 μl kinase reaction, 40 μl detection reaction): 10 mM MgCl2; 0.2 mM Kemptide peptide; 1 μl test compound (in DMSO); 0.3 μg/ml Autophosphorylated AurA kinase; 10 μM ATP; 100 mM HEPES+0.015% Brij buffer. Positive controls contained DMSO with no test compound. Negative controls contained 5 μM staurosporine. The kinase reactions were initiated at time t=0 by the addition of ATP. Kinase reactions were incubated at 21° C. for 45 min, then 20 μl of Kinase-Glo™ reagent were added to each well to quench the kinase reaction and initiate the luminescence reaction. After a 20 min incubation at 21° C., the luminescence was detected in a plate-reading luminometer.
The Sf9 insect cell pellets (˜18 g) produced from 6 L of cultured cells expressing human Aurora-2 were resuspended in 50 mM Na Phosphate pH 8.0, 500 mM NaCl, 10% glycerol, 0.2% n-octyl-β-D-glucopyranoside (BOG) and 3 mM β-Mercaptoethanol (BME). One tablet of Roche Complete, EDTA-free protease inhibitor cocktail (Cat#1873580) and 85 units Benzonase (Novagen Cat#70746-3)) were added per 1 L of original culture. Pellets were resuspended in approximately 50 ml per 1 L of original culture and were then sonicated on ice with two 30-45 sec bursts (100% duty cycle). Debris was removed by centrifugation and the supernatant was passed through a 0.8 μm syringe filter before being loaded onto a 5 ml Ni^2+ HiTrap column (Pharmacia). The column was washed with 6 column volumes of 50 mM Na Phosphate pH 8.0, 500 mM NaCl, 10% glycerol, 3 mM BME. The protein was eluted using a linear gradient of the same buffer containing 500 mM Imidazole. The eluant (24 ml) was cleaved overnight at 4° C. in a buffer containing 50 mM Na Phosphate pH 8.0, 500 mM NaCl, 10% glycerol, 3 mM BME and 10,000 units of TEV (Invitrogen Cat#10127-017). The protein was passed over a second nickel affinity column as described above; the flow-through was collected. The cleaved protein fractions were combined and concentrated using spin concentrators. Further purification was done by gel filtration chromatography on a S75 sizing column in 50 mM Na Phosphate (pH 8.0), 250 mM NaCl, 1 mM EDTA, 0.1 mM AMP-PNP or ATP buffer, and 5 mM DTT. The cleanest fractions were combined and concentrated to approximately 8-11 mg/ml, and were either flash frozen in liquid nitrogen in 120 μl aliquots and stored at −80° C., or stored at 4° C.

For another assay, the system named is HCT116 cells. Kind of assay: 96-well XTT cell survival assay (AurA XTT). It is filed as cell-based. The conditions noted are these: Homo sapiens, HCT-116, 72 hours. As to the method:
HCT116 cells were maintained in McCoy's 5a Medium supplemented with 10% fetal bovine serum (FBS) 2 mM L-Glutamine and 100 units penicillin/100 μg streptomycin, at 37° C. in 5% CO2
Compounds were tested in the following assays in duplicate.
96-well XTT assay: Cells were grown in growth media containing various concentrations of compounds (duplicates) on a 96-well flat bottom plate for 72 hours at 37° C. in 5% CO2. The starting cell number was 5000 cells per well and volume was 120 μl. At the end of the 72-hour incubation, 40 μl of XTT labeling mixture (50:1 solution of sodium 3′-[1-(phenylaminocarbonyl)-3,4-tetrazolium]-bis(4-methoxy-6-nitro) benzene sulfonic acid hydrate and Electron-coupling reagent: PMS (N-methyl dibenzopyrazine methyl sulfate) were added to each well of the plate. After an additional 2-6 hours […] with a spectrophotometer.

Bounds are passed on as bounds.

In the case of `COc1ccc(Nc2nccc(-c3ccc(Br)s3)n2)cc1C(=O)N(C)C`, the IC50 in assay [1] fell in the range of 100 to 500 nM; in the assay on HCT116 cells it was 1000 to 5000 nM. Take `CCN(CCC#N)C(=O)c1ccc(-c2ccnc(Nc3cccc(C(C)O)c3)n2)s1` (stereo not shown): the IC50 in assay [1] is 100 to 500 nM; with HCT116 cells, less than 1000 nM.

With `CCC(=O)Nc1ccc(-c2ccnc(Nc3cccc(C)c3)n2)s1`, the values for the IC50 (in assay [1]; in the assay with HCT116 cells) were 100 to 500 nM and 1000 to 5000 nM, respectively.

In turn, `CCC1CCCCN1S(=O)(=O)c1ccc(-c2ccnc(Nc3cccc(C(C)O)c3)n2)s1` (stereo not shown) had a half-maximal inhibitory concentration (IC50) in assay [1] of 100 to 500 nM. On to `CN(C)C(=O)c1cccc(Nc2nccc(-c3ccc(Br)s3)n2)c1`, for which, in assay [1], the IC50 is 100 to 500 nM.

Consider `CC(O)c1cccc(Nc2nccc(-c3ccc(-c4cccc(CC#N)c4)s3)n2)c1` (stereo not shown), for which the IC50 in assay [1] fell in the range of 100 to 500 nM. As for `CC(O)c1cccc(Nc2nccc(-c3ccc(S(=O)(=O)N(C)C)s3)n2)c1` (stereo not shown), the IC50 was less than 100 nM in assay [1] and 1000 to 5000 nM in the assay on HCT116 cells. Turning to `CN(C)C1CCN(c2cccc(Nc3nccc(-c4ccc(C(=O)NCc5ccco5)s4)n3)c2)C1` (stereo not shown), the IC50 in assay [1] lay within 100 to 500 nM. Take `CCN(CCC#N)S(=O)(=O)c1ccc(-c2ccnc(Nc3cccc(C(C)O)c3)n2)s1` (stereo not shown): the IC50 is less than 100 nM in assay [1] and 1000 to 5000 nM in the assay with HCT116 cells. For `CC(O)c1cccc(Nc2nccc(-c3ccc(-c4cccnc4)s3)n2)c1` (stereo not shown), in that order: 100 to 500 nM and 1000 to 5000 nM. On to `CN(Cc1ccccc1)C(=O)c1ccc(-c2ccnc(Nc3ccc(CCO)cc3)n2)s1`, for which the IC50 is less than 100 nM in assay [1] and 1000 to 5000 nM in the assay with HCT116 cells. As to `C[C@@H](NC(=O)c1ccc(-c2ccnc(Nc3cccc(CN4CCN(CCO)CC4)c3)n2)s1)c1ccccc1`, the IC50 in assay [1] was less than 100 nM; with HCT116 cells it was less than 1000 nM. `Brc1ccc(-c2ccnc(Nc3cccc(CN4CCOCC4)c3)n2)s1` displayed an IC50 in assay [1] of more than 500 nM. On the same count and under the same terms, the value for `OC1CCN(Cc2cccc(Nc3nccc(-c4ccc(CNc5ccccc5Cl)s4)n3)c2)CC1` was more than 500 nM. With `O=C(c1cccc(Nc2nccc(-c3ccc(Br)s3)n2)c1)N1CCN(CCO)CC1`, the results for the IC50 (in assay [1]; in the assay with HCT116 cells) were 100 to 500 nM and 1000 to 5000 nM, respectively. In assay [1], `CNC(=O)c1ccc(-c2ccc(-c3ccnc(Nc4cccc(C(C)O)c4)n3)s2)cc1` (stereo not shown) came in with an IC50 of 100 to 500 nM. Consider `CCN(CCC#N)S(=O)(=O)c1ccc(-c2ccnc(Nc3cccc(C)c3)n2)s1`, for which the results for the IC50 (in assay [1]; in the assay on HCT116 cells) were less than 100 nM and 1000 to 5000 nM, respectively. `O=C(NCc1ccccc1)c1ccc(-c2ccnc(Nc3ccc(CCO)cc3)n2)s1`: the figures for the IC50 (in assay [1]; in the assay on HCT116 cells) were less than 100 nM and 1000 to 5000 nM, respectively. Compound `COc1ccc(Nc2nccc(-c3ccc(Br)s3)n2)cc1OC` had an IC50 in assay [1] of less than 100 nM. Still for that read-out and setting: the value for `CC(O)c1cccc(Nc2nccc(-c3ccc(S(=O)(=O)Cc4ccccc4)s3)n2)c1` (stereo not shown) was 100 to 500 nM. Take `C[C@@H](NC(=O)c1ccc(-c2ccnc(Nc3cccc(CN4CCC(O)CC4)c3)n2)s1)c1ccccc1`: the IC50 in assay [1] was less than 100 nM; in the assay on HCT116 cells, less than 1000 nM.

For `CC(O)c1cccc(Nc2nccc(-c3ccc(-c4ccncc4)s3)n2)c1` (stereo not shown), the IC50 in assay [1] was more than 500 nM.
